Source: patent US12318369B2, “Analgesic and antipruritic pharmacertical composition and application thereof” (KEVICI (SHANGHAI) PHARMACEUTICAL CO., LTD., priority 2020, dated 2025)
“Also recorded” adds a separate entry of the source.

Assays:
[1] = tested on: SNI-induced neuropathic pain C57/BJ6 mice; assay: SNI-induced neuropathic pain mouse model, mechanical pain threshold (PWT) by Von Frey; assay type: in vivo
Protocol: C57/BJ6 mice aged 5-6 weeks were purchased from Shanghai SLAC Laboratory Animal Co., Ltd and fed for 6 months. After that, the mice were placed in a transparent plexiglass chamber on an iron support. 30 minutes later, the baseline mechanical threshold (paw withdrawal threshold, PWT) of the mice was detected by Von Frey (DanMicGlobal, CA, USA). The average threshold of the mice was 1.54+0.07 g (see FIG. 1). The spared nerve injury (SNI)-induced neuropathic pain C57/BJ6 mouse model was established according to Pertin, M et al (Pertin, M., Gosselin, RD., Decosterd, I. (2012). The Spared Nerve Injury Model of Neuropathic Pain. In: Luo, Z. (eds) Pain Research. Methods in Molecular Biology, vol 851. Humana Press). The SNI-induced neuropathic pain mice were measured for the mechanical pain threshold using Von Frey respectively at 2 weeks, 4 weeks and 6 weeks post operation.
The mechanical pain threshold of mice was tested 1 hour after injection. […] Among them, the mice with poor response (ΔPWT≤ 0.2 g) accounted for 10% (2/20) of all tested mice.
20 μg/kg GNE-0439 and 90 μg/kg PF-04885614 were intraperitoneally injected into SNI mice at 6 weeks post operation. One hour later, the mechanical threshold of mice was measured using Von Frey.

[2] = tested on: neuropathic pain patients; settings: clinical use; cited from earlier work
[3] = Side effects observed in SNI mice after intraperitoneal injection
[4] = tested on: subjects with painful diabetic peripheral neuropathy; settings: randomised, placebo-controlled, double-blind clinical study; cited from earlier work

With `CCCC1CCC(c2ccc(C(=O)N[C@H](C(=O)O)C(C)C)cc2)CC1` (stereo partly shown) [GNE-0439] as the molecule, how does the ΔPWT ([1]; single administration, 20 μg/kg i.p., SNI mice 6 weeks post operation, one hour after injection) read?
Its ΔPWT is 0.77 ± 0.14 g.

With `NCC1(CC(=O)O)CCCCC1` [Gabapentin] as the molecule, how does the “effect on mechanical pain of SNI mice” value ([1]; 100 mg/kg i.p., 6 weeks post operation) read?
The value was “relieve effect”.

And the “accompanying side effects in patients” value [2]?
The value was “sedation effects (such as drowsiness, fatigue and dizziness)”.

And the side effects ([3]; 100 mg/kg Gabapentin)?
The side effects was “sedative side effects”.

With `COc1ccc(Cl)c(-c2ccc(NC(=O)c3ccnn3C)nc2N)c1` [PF-04531083] as the molecule, how does the side effects ([3]; 10 mg/kg PF-04531083 (effective dose)) read?
The side effects was “obvious side effects such as sedation and weight loss; also recorded: significant side effects such as sedation and weight loss”.

For `CC(C)(N)c1ncc(-c2ccc(OC(F)(F)F)cc2)[nH]1` [PF-04885614], which “mice with poor response (ΔPWT≤0.2 g)” value ([1]; 45 μg/kg i.p., 2 weeks post operation (2/18)) is on record?
Its value is 11.1%.

What about the “threshold increase compared with the control group” value ([1]; 45 μg/kg i.p., 4 weeks post operation) of the same molecule?
The value was “no statistically significant difference”.

What about the “mice with poor response (ΔPWT≤0.2 g)” value ([1]; 45 μg/kg i.p., 4 weeks post operation (10/19)) of the same molecule?
Its value is 52.6%.

What about the “mice with poor response (ΔPWT≤0.2 g)” value ([1]; 45 μg/kg i.p., 6 weeks post operation (13/17)) of the same molecule?
The value was 76.5%.

And the “increase of mechanical pain threshold (ΔPWT)” value (from here on “increase … (ΔPWT)”) ([1]; 45 μg/kg i.p., SNI mice 2 weeks post operation)?
Its value is 0.86 ± 0.14 g.

And the “increase … (ΔPWT)” value ([1]; 45 μg/kg i.p., SNI mice 4 weeks post operation)?
The value was 0.21 ± 0.04 g.

What about the “increase … (ΔPWT)” value ([1]; 45 μg/kg i.p., SNI mice 6 weeks post operation) of the same molecule?
Its value is 0.10 ± 0.04 g.

And the “fraction of PF-05089771 poor responders that well responded” value ([1]; 90 μg/kg PF-04885614, 6 weeks post SNI operation)?
Its value is “half”.

For `Nc1n[nH]cc1-c1cc(Cl)ccc1Oc1cc(F)c(S(=O)(=O)Nc2cscn2)cc1Cl` [PF-05089771], which “mice with poor response (ΔPWT≤0.2 g)” value ([1]; 2 mg/kg i.p., 2 weeks post operation (2/20)) is on record?
Its value is 10%.

And the “mice with poor response (ΔPWT≤0.2 g)” value ([1]; 2 mg/kg i.p., 4 weeks post operation (10/24))?
The value was 41.7%.

What about the “mice with poor response (ΔPWT≤0.2 g)” value ([1]; 2 mg/kg i.p., 6 weeks post operation (16/28)) of the same molecule?
The value was 57.1%.

And the “increase … (ΔPWT)” value ([1]; 2 mg/kg i.p., SNI mice 2 weeks post operation, 1 hour after injection)?
The value was 0.77 ± 0.10 g.

And the “increase … (ΔPWT)” value ([1]; 2 mg/kg i.p., SNI mice 4 weeks post operation, 1 hour after injection)?
Its value is 0.39 ± 0.07 g.

What about the “increase … (ΔPWT)” value ([1]; 2 mg/kg i.p., SNI mice 6 weeks post operation, 1 hour after injection) of the same molecule?
Its value is 0.17 ± 0.03 g.

What about the “fraction of total mice that poorly responded (ΔPWT≤0.2 g)” value ([1]; 2 mg/kg, 6 weeks post SNI operation (8/12, Table 1)) of the same molecule?
Its value is 2/3.

What about the “efficacy in treatment of diabetic neuropathic pain” value [4] of the same molecule?
Its value is “poor efficacy”.

With `CC(C)C[C@H](CN)CC(=O)O` [Pregabalin] as the molecule, how does the “accompanying side effects in patients” value [2] read?
The value was “sedation effects (such as drowsiness, fatigue and dizziness)”.
